Test results as given in patent US20120214824A1, “PROTEOSTASIS REGULATORS” (priority 2010, published 2012).

Key:
[1] = test system: HMOX1; experiment: Multigene assay (QuantiGene Plex 2.0), human HeLa cell line; assay type: cell-based; conditions: 6 hours post-compound treatment, Table 7
[2] = test system: Hspa1a; experiment: as above; assay type: cell-based; conditions: 6 hours post-compound treatment, Table 7
Description: (§1) This assay used the QuantiGene Plex 2.0 Reagent System from Affymetrix. This assay combines the use of bDNA (branch DNA) and xMAP magnetic capture beads from Luminex Technologies to quantitatively and simultaneously detect multiple mRNA transcripts per well. The overall procedure was performed according to the QuantiGene Plex 2.0 Reagent System instruction manual from Affymetrix.
(§2) Cells were seeded at a density of 12,000 cells/well in 96-well plates with an overnight incubation at 37° C., 5% CO2. Cells were treated with serially diluted compounds in a 7-point dose dependent manner. Cell lysis with 50% [v/v] Panomics Lysis Mixture (Lysis Mixture+10 μl/ml 25 Proteinase K) was performed 6 hours post-compound treatment. Lysed cells were heated at 50° C. to ensure appropriate lysing and the plates were then frozen at −80° C. Cell lysates, thawed at room temperature on the day of the assay, were pooled with mouse 8-gene multiplex probe sets and with 8 different sets of magnetic capture beads (Luminex Technology, Austin, Tex.) in a 100 μl/well volume. Biomek FX was used at every liquid transfer step. The eight plates containing lysate-probe-bead mixtures were incubated at 54° C.±1° C. on a shaking platform for an overnight incubation in the dark (18-20 hours). The following day the hybridization plates were compressed by transferring the hybridized lysates into a single magnetic capture plate. The plate was kept on a magnet to hold the beads and then washed with Panomics Wash Buffer 2.0 on a BioTek ELx405 select plate washer to remove any unbound sample. This step was followed by serial hybridizations and washings of the bDNA pre-amplifier (1 hour, 50° C.), bDNA amplifier (1 hour, 50° C.), label probe (1 hour, 50° C.), and streptavidin-phycoerythrin (SAPE, 30 minutes, room temperature). (Zhang, A. et al. Small interfering RNA and gene expression analysis using a multiplex branched DNA assay without RNA purification. J Biomol Screen 10, 549-56 (2005)). The plate was then washed with SAPE wash buffer to remove unbound SAPE and each well was analyzed with the Luminex FlexMap3D (Luminex, Austin, Tex.). SAPE fluorescence measured from each bead was proportional to the number of mRNA transcripts captured by the beads (Zheng, Z., Luo, Y. & McMaster, G. K. Sensitive and quantitative measurement of gene expression directly from a small amount of whole blood. Clin Chem 52, 1294-302 (2006)). Fold changes in gene expression were obtained for each gene per well by normalizing the raw data first to the DMSO control and then to a housekeeping gene (TBP-TATA binding protein or Tub1-alpha-tubulin).

[3] = test system: SQSM; experiment: as above; assay type: cell-based; conditions: 6 hours post-compound treatment, Table 7
Description: as §1, §2

[4] = test system: HspA5; experiment: as above; assay type: cell-based; conditions: 6 hours post-compound treatment, Table 7
Description: as §1, §2

[5] = test system: GCLM; experiment: as above; assay type: cell-based; conditions: 6 hours post-compound treatment, Table 7
Description: as §1, §2

[6] = test system: DDIT3; experiment: as above; assay type: cell-based; conditions: 6 hours post-compound treatment, Table 7
[7] = test system: DDIT3; experiment: Multigene assay (QuantiGene Plex 2.0), mouse MEF cell line; assay type: cell-based; conditions: 6 hours post-compound treatment
Description: as §1, §2

[8] = test system: BCL2; experiment: as above; assay type: cell-based; conditions: 6 hours post-compound treatment
Description: as §1, §2

[9] = test system: HSPA1a; experiment: as above; assay type: cell-based; conditions: 6 hours post-compound treatment
Description: as §1, §2

[10] = test system: HMOX; experiment: as above; assay type: cell-based; conditions: 6 hours post-compound treatment
Description: as §1, §2

[11] = test system: HspA5; experiment: as above; assay type: cell-based; conditions: 6 hours post-compound treatment
Description: as §1, §2

[12] = test system: GCLM; experiment: as above; assay type: cell-based; conditions: 6 hours post-compound treatment
Description: as §1, §2

[13] = test system: TUB1; experiment: as above; assay type: cell-based; conditions: 6 hours post-compound treatment
Description: as §1, §2

[14] = test system: firefly luciferase; experiment: Luciferase folding assay (Lucif.); assay type: cell-based, human; conditions: HeLa-luciferase cells
Description: Firefly luciferase is a commonly used bioluminescent reporter. This monomeric enzyme of 61 kDa catalyzes a two-step oxidation reaction to yield light, usually in the green to yellow region, typically 550-570 nm. The first step of this reaction is activation of the luciferyl carboxylate by ATP to yield a reactive mixed anhydride. In the second step, the activated intermediate reacts with oxygen to create a transient dioxetane that breaks down to the oxidized products, oxyluciferin and CO2. Upon mixing with substrates, firefly luciferase produces an initial burst of light that decays over about 15 seconds to a low level of sustained luminescence. This kinetic profile reflects the slow release of the enzymatic product, thus limiting catalytic turnover after the initial reaction.
This mammalian cell based assay that used firefly luciferase as a sensor was used to screen for compounds that may modulate the cellular folding environment.
HeLa luciferase cell lines: Frozen bullets containing the cells were thawed briefly at 37° C. then placed into a T-150 flask containing 30-35 ml DMEM medium+Penicillin/Strep (1% final+10% FBS (final)+Geneticin @ 200-500 ug/ml. Cell cultures were maintained at 37° C. with 5% CO2 and water in the bottom of the incubator to keep cells healthy. Upon expanding cell line, luciferase measurements were taken to make sure that activity levels were between 2000-5000 (RLU) when plated at 15K/well in a 96-well format (Bright-Glo Promega) before compound treatment.
Compound treatment of HeLa-luciferase cells: HeLa-luciferase WT cells were plated in a 96-well format at 15K/well the day prior to performing compound treatment and/or luciferase assay. […] Final volume used per well was 90 uL. Flat bottom, white polystyrene plates were used for plating the cells.
For compound treatment, stocks of compounds were made up at 10 mM concentration in DMSO. Stocks compounds were diluted by 100× fold in the same media used for culturing the cells—this leads to a 0.1 mM (or 100 uM) concentration. After diluting the compound in media, 10 uL of the 100 uM solution was placed into each well of cells (90 uL); making the final concentration of the compound 10 uM. If serial dilutions of compounds were tested, serial dilutions of compounds were first made in DMSO accordingly, and further diluted in the media, prior to adding to cells. This procedure allowed for constant final levels of DMSO concentrations, regardless of initial compound concentration.
Performing luciferase activity assay: Bright-Glo Luciferase Assay Reagent (Promega cat #: E2610, E2620, E2650) was thawed out at RT in a water bath. Alternatively, Bright-Glo Luciferase assay buffer (prior to mixing with substrate) was stored overnight at RT, prior to using.
Following compound treatment, plates were removed from 37° C. and allowed to acclimate to RT for 5-10 min. Bright-Glo reagent was added to each cell-containing well in a 1:1 ratio (e.g., 100 uL of Bright Glo for each 100 uL cells).
Plates were placed on a plate shaker for 5 min, removing any air bubbles on the surface (which may interfere with proper reads), and then read on an EnVision 2104 Multilabel reader, Emission filter Luminescence 700, barcode 212, WL 400-700 nm.
Data for representative compounds in this assay are shown under the heading “Lucif.”

CC1=C(C#N)C(c2ccccc2OC(C)C)C2=C(CC(c3ccc(Cl)cc3)CC2=O)N1 (stereo not drawn) [C]
HMOX1 gene induction [1]: — (— Indicates less than 2 fold induction) | HSPA1a gene induction [2]: + (+ indicates a induction of greater than 2 fold) | SQSM gene induction [3]: — (— Indicates less than 2 fold induction) | HspA5 gene induction [4]: + (+ indicates a induction of greater than 2 fold) | GCLM gene induction [5]: — (— Indicates less than 2 fold induction) | DDIT3 gene induction [6]: + (+ indicates a induction of greater than 2 fold)

CC1=C(C(=O)OCC(C)C)C(c2ccc(F)cc2)C2=C(CC(c3ccccc3)CC2=O)N1 (stereo not drawn) [drawing 27/Me/COOCH2CHMe2/p-F/H]
DDIT3 gene induction ([7]; Table 2a): − (− Indicates less than 2 fold induction) | BCL2 gene induction ([8]; Table 2b): − (− Indicates less than 2 fold induction) | HSPA1a gene induction ([9]; Table 2b): − (− Indicates less than 2 fold induction) | HMOX gene induction ([10]; Table 2b): − (− Indicates less than 2 fold induction) | HspA5 gene induction ([11]; Table 2b): − (− Indicates less than 2 fold induction) | GCLM gene induction ([12]; Table 2a): − (− Indicates less than 2 fold induction) | TUB1 gene induction ([13]; Table 2a): − (− Indicates less than 2 fold induction) | Lucif (luciferase activity induction) ([14]; Table 2a): + (+ indicates a induction of greater than 2 fold)

CC1=C(C(=O)OCC(C)C)C(c2ccc(F)cc2)C2=C(CC(c3cccs3)CC2=O)N1 (stereo not drawn) [drawing 26/Me/COOCH2CHMe2/p-F #2]
DDIT3 gene induction ([7]; Table 1a): + (+ indicates a induction of greater than 2 fold) | BCL2 gene induction ([8]; Table 1b): − (− Indicates less than 2 fold induction) | HSPA1a gene induction ([9]; Table 1b): − (− Indicates less than 2 fold induction) | HMOX gene induction ([10]; Table 1b): − (− Indicates less than 2 fold induction) | HspA5 gene induction ([11]; Table 1b): − (− Indicates less than 2 fold induction) | GCLM gene induction ([12]; Table 1a): − (− Indicates less than 2 fold induction) | TUB1 gene induction ([13]; Table 1a): − (− Indicates less than 2 fold induction) | Lucif. (luciferase activity induction) ([14]; Table 1a): + (+ indicates a induction of greater than 2 fold)

CCCc1n[nH]c2c1C(c1ccccc1Br)C(C#N)=C(N)O2 (stereo not drawn) [drawing 28/(CH2)2Me/2-Br]
DDIT3 gene induction ([7]; Table 3a): − (− Indicates less than 2 fold induction) | BCL2 gene induction ([8]; Table 3b): − (− Indicates less than 2 fold induction) | HSPA1a gene induction ([9]; Table 3b): − (− Indicates less than 2 fold induction) | HMOX gene induction ([10]; Table 3b): + (+ indicates a induction of greater than 2 fold) | HspA5 gene induction ([11]; Table 3b): − (− Indicates less than 2 fold induction) | GCLM gene induction ([12]; Table 3a): + (+ indicates a induction of greater than 2 fold) | TUB1 gene induction ([13]; Table 3a): − (− Indicates less than 2 fold induction) | Lucif (luciferase activity induction) ([14]; Table 3a): + (+ indicates a induction of greater than 2 fold)

CC(C)Oc1ccccc1C1C(C#N)=C(N)NC2=C1C(=O)CC(c1ccccc1)C2 (stereo not drawn) [drawing 27/NH2/CN/o-OCHMe2/H]
DDIT3 gene induction ([7]; Table 2a): + (+ indicates a induction of greater than 2 fold) | BCL2 gene induction ([8]; Table 2b): − (− Indicates less than 2 fold induction) | HSPA1a gene induction ([9]; Table 2b): + (+ indicates a induction of greater than 2 fold) | HMOX gene induction ([10]; Table 2b): + (+ indicates a induction of greater than 2 fold) | HspA5 gene induction ([11]; Table 2b): − (− Indicates less than 2 fold induction) | GCLM gene induction ([12]; Table 2a): − (− Indicates less than 2 fold induction) | TUB1 gene induction ([13]; Table 2a): − (− Indicates less than 2 fold induction) | Lucif (luciferase activity induction) ([14]; Table 2a): + (+ indicates a induction of greater than 2 fold)

CCCc1n[nH]c2c1C(c1cc(Br)ccc1O)C(C#N)=C(N)O2 (stereo not drawn) [drawing 28/(CH2)2Me/2-OH-5-Br]
DDIT3 gene induction ([7]; Table 3a): − (− Indicates less than 2 fold induction) | BCL2 gene induction ([8]; Table 3b): − (− Indicates less than 2 fold induction) | HSPA1a gene induction ([9]; Table 3b): − (− Indicates less than 2 fold induction) | HMOX gene induction ([10]; Table 3b): + (+ indicates a induction of greater than 2 fold) | HspA5 gene induction ([11]; Table 3b): − (− Indicates less than 2 fold induction) | GCLM gene induction ([12]; Table 3a): + (+ indicates a induction of greater than 2 fold) | TUB1 gene induction ([13]; Table 3a): − (− Indicates less than 2 fold induction) | Lucif (luciferase activity induction) ([14]; Table 3a): + (+ indicates a induction of greater than 2 fold)

CCCc1n[nH]c2c1C(c1ccccc1C(F)(F)F)C(C#N)=C(N)O2 (stereo not drawn) [drawing 28/(CH2)2Me/2-CF3 #1]
DDIT3 gene induction ([7]; Table 3a): − (− Indicates less than 2 fold induction) | BCL2 gene induction ([8]; Table 3b): − (− Indicates less than 2 fold induction) | HSPA1a gene induction ([9]; Table 3b): − (− Indicates less than 2 fold induction) | HMOX gene induction ([10]; Table 3b): + (+ indicates a induction of greater than 2 fold) | HspA5 gene induction ([11]; Table 3b): − (− Indicates less than 2 fold induction) | GCLM gene induction ([12]; Table 3a): + (+ indicates a induction of greater than 2 fold) | TUB1 gene induction ([13]; Table 3a): − (− Indicates less than 2 fold induction) | Lucif (luciferase activity induction) ([14]; Table 3a): + (+ indicates a induction of greater than 2 fold)
